Assays:
[1] = Oral PK in rats: plasma concentrations of released oxycodone by LC-MS/MS; details: for AUC / Cmax / tmax: conjugate equivalent to 2 mg/kg freebase oxycodone; for %-AUC of OC / %-Cmax of OC / %-tmax of OC: relative to oxycodone (OC)
[2] = Oral PK in rats: plasma concentrations of oxymorphone by LC-MS/MS; details: oxymorphone released; for AUC / Cmax / tmax: conjugate equivalent to 2 mg/kg freebase oxycodone; for %-AUC of OC / %-Cmax of OC / %-tmax of OC: relative to oxycodone (OC)
[3] = Tamper resistance: percent of OC released under tampering conditions, LC-MS/MS; type: physicochemical; details: RT
Description: Effective abuse deterrent forms of drugs of abuse can also be resistant to chemical tampering. The prodrugs in the present technology also impart this characteristic. Several common tampering scenarios were employed and percent of OC released were determined by liquid chromatography with tandem mass spectrometry (LC-MS/MS). The results as shown in Table 7 indicated a very high degree of tamper resistance in the example OC prodrugs, releasing little to no OC.

[4] = Intranasal PK in rats: plasma concentrations of released oxymorphone by LC-MS/MS; details: for AUC / Cmax / tmax: Table 6, equivalent to 2 mg/kg freebase oxycodone; for %-AUC of OC / %-Cmax of OC / %-tmax of OC: Table 6, relative to oxycodone (OC)
[5] = Intranasal PK in rats (Table 4); details: title: oxymorphone released (released oxycodone); for Cmax / tmax: equivalent to 2 mg/kg freebase oxycodone; for %-Cmax of OC / %-tmax of OC: relative to oxycodone (OC)

## COc1ccc2c3c1OC1C(OC(=O)C(C)c4cccc(Oc5ccccc5)c4)=CCC4(O)C(C2)N(C)CCC314 (mixture of isomers) [6-Fenoprofen-OC]
[1]
  AUC: 21.6 ng·h/mL
  Cmax: 14.0 ng/mL
  tmax: 15 min
  %-AUC of OC: 69%
  %-Cmax of OC: 87%
  %-tmax of OC: 83%
[2]
  AUC: 4.6 ng·h/mL
  Cmax: 3.3 ng/mL
  tmax: 15 min
  %-AUC of OC: 67%
  %-Cmax of OC: 68%
  %-tmax of OC: 100%

## COc1ccc2c3c1OC1C(OC(=O)C(C)c4cccc(C(=O)c5ccccc5)c4)=CCC4(O)C(C2)N(C)CCC314 (mixture of isomers) [6-Ketoprofen-OC]
[1]
  AUC: 25.5 ng·h/mL
  Cmax: 14.7 ng/mL
  tmax: 15 min
  %-AUC of OC: 81%
  %-Cmax of OC: 91%
  %-tmax of OC: 83%
[2]
  AUC: 4.3 ng·h/mL
  Cmax: 3.7 ng/mL
  tmax: 15 min
  %-AUC of OC: 62%
  %-Cmax of OC: 77%
  %-tmax of OC: 100%
[3]; 1N HCl, 1 hour
  percent of OC released: 2%
[3]; 5% Bicarbonate, 1 hour
  percent of OC released: 3%
[3]; Water, 1 hour
  percent of OC released: 0%
[3]; Water, 24 hours
  percent of OC released: <1%

## COc1ccc2c3c1OC1C(OC(=O)C(C)c4ccc(CC(C)C)cc4)=CCC4(O)C(C2)N(C)CCC314 (mixture of isomers) [Conjugate 6-lbu-OC]
[4]
  AUC: 0.7 ng·h/mL
  Cmax: 1.0 ng/mL
  tmax: 30 min
  %-AUC of OC: 11%
  %-Cmax of OC: 11%
  %-tmax of OC: 143%
[1]
  AUC: 77.9 ng·h/mL
  Cmax: 39.5 ng/mL
  tmax: 26.4 min
  %-AUC of OC: 83%
  %-Cmax of OC: 62%
  %-tmax of OC: 47%
[5]
  Cmax: 131.7 ng/mL
  tmax: 4.98 min
  %-Cmax of OC: 10%
  %-tmax of OC: 100%
[2]
  AUC: 8.4 ng·h/mL
  Cmax: 3.7 ng/mL
  tmax: 69 min
  %-AUC of OC: 83%
  %-Cmax of OC: 59%
  %-tmax of OC: 131%
[3]; 1N HCl, 1 hour
  percent of OC released: 2%
[3]; 5% Bicarbonate, 1 hour
  percent of OC released: 2%
[3]; Water, 1 hour
  percent of OC released: 0%
[3]; Water, 24 hours
  percent of OC released: 0%

## COc1cc(C(=O)OC2=CC[C@@]3(O)[C@H]4Cc5ccc(OC)c6c5[C@@]3(CCN4C)[C@H]2O6)ccc1O [4-OH-3-MeO-Bz-OC]
[3]; 1N HCl, 1 hour
  percent of OC released: 0%
[3]; 5% Bicarbonate, 1 hour
  percent of OC released: 0%
[3]; Water, 1 hour
  percent of OC released: 0%
[3]; Water, 24 hours
  percent of OC released: 0%

## COc1ccc2c3c1O[C@H]1C(OC(=O)/C=C/c4ccccc4)=CC[C@@]4(O)[C@@H](C2)N(C)CC[C@]314 [6-Cinnamate-OC]
[4]
  AUC: 1.7 ng·h/mL
  Cmax: 2.4 ng/mL
  tmax: 30 min
  %-AUC of OC: 18%
  %-Cmax of OC: 18%
  %-tmax of OC: 133%
[1]
  AUC: 55.9 ng·h/mL
  Cmax: 35.5 ng/mL
  tmax: 18 min
  %-AUC of OC: 60%
  %-Cmax of OC: 56%
  %-tmax of OC: 32%
[5]
  Cmax: 497.2 ng/mL
  tmax: 4.98 min
  %-Cmax of OC: 22%
  %-tmax of OC: 100%
[2]
  AUC: 9.2 ng·h/mL
  Cmax: 4.3 ng/mL
  tmax: 21 min
  %-AUC of OC: 91%
  %-Cmax of OC: 68%
  %-tmax of OC: 40%
[3]; 1N HCl, 1 hour
  percent of OC released: 0%
[3]; 5% Bicarbonate, 1 hour
  percent of OC released: <1%
[3]; Water, 1 hour
  percent of OC released: 0%
[3]; Water, 24 hours
  percent of OC released: 0%

## COc1ccc2c3c1O[C@H]1C(OC(=O)c4cccc(N)c4)=CC[C@@]4(OC(=O)c5cccc(N)c5)[C@@H](C2)N(C)CC[C@]314 [(3-ABz)2-OC]
[3]; 1N HCl, 1 hour
  percent of OC released: 0%
[3]; 5% Bicarbonate, 1 hour
  percent of OC released: 0%
[3]; Water, 1 hour
  percent of OC released: 0%
[3]; Water, 24 hours
  percent of OC released: 0%

## COc1ccc2c3c1O[C@H]1C(OC(=O)c4cccc(O)c4)=CC[C@@]4(OC(=O)c5cccc(O)c5)[C@@H](C2)N(C)CC[C@]314 [(3-OH-Bz)2-OC]
[3]; 1N HCl, 1 hour
  percent of OC released: 0%
[3]; 5% Bicarbonate, 1 hour
  percent of OC released: 0%
[3]; Water, 1 hour
  percent of OC released: 0%
[3]; Water, 24 hours
  percent of OC released: 0%

## COc1ccc(C(=O)OC2=CC[C@@]3(OC(=O)c4ccc(OC)cc4)[C@H]4Cc5ccc(OC)c6c5[C@@]3(CCN4C)[C@H]2O6)cc1 [(4-MeO-Bz)2-OC]
[3]; 1N HCl, 1 hour
  percent of OC released: 0%
[3]; 5% Bicarbonate, 1 hour
  percent of OC released: 0%
[3]; Water, 1 hour
  percent of OC released: 0%
[3]; Water, 24 hours
  percent of OC released: 0%

## COc1cc(C(=O)OC2=CC[C@@]3(OC(=O)c4ccc(O)c(OC)c4)[C@H]4Cc5ccc(OC)c6c5[C@@]3(CCN4C)[C@H]2O6)ccc1O [(4-OH-3-MeO-Bz)2-OC]
[3]; 1N HCl, 1 hour
  percent of OC released: 0%
[3]; 5% Bicarbonate, 1 hour
  percent of OC released: 0%
[3]; Water, 1 hour
  percent of OC released: 0%
[3]; Water, 24 hours
  percent of OC released: 0%

## COc1ccc2c3c1O[C@H]1C(OC(=O)c4ccc(O)cc4)=CC[C@@]4(OC(=O)c5ccc(O)cc5)[C@@H](C2)N(C)CC[C@]314 [(4-OH-Bz)2-OC]
[3]; 1N HCl, 1 hour
  percent of OC released: 0%
[3]; 5% Bicarbonate, 1 hour
  percent of OC released: 0%
[3]; Water, 1 hour
  percent of OC released: 0%
[3]; Water, 24 hours
  percent of OC released: 0%

## COc1ccc2c3c1O[C@H]1C(OC(=O)c4ccccc4)=CC[C@@]4(OC(=O)c5ccccc5)[C@@H](C2)N(C)CC[C@]314 [(Bz)2-OC]
[3]; 1N HCl, 1 hour
  percent of OC released: 0%
[3]; 5% Bicarbonate, 1 hour
  percent of OC released: 0%
[3]; Water, 1 hour
  percent of OC released: 0%
[3]; Water, 24 hours
  percent of OC released: 0%

## COc1ccc2c3c1O[C@H]1C(OC(=O)/C=C/c4ccccc4)=CC[C@@]4(OC(=O)/C=C/c5ccccc5)[C@@H](C2)N(C)CC[C@]314 [(Cin)2-OC]
[3]; 1N HCl, 1 hour
  percent of OC released: 0%
[3]; 5% Bicarbonate, 1 hour
  percent of OC released: 0%
[3]; Water, 1 hour
  percent of OC released: 0%
[3]; Water, 24 hours
  percent of OC released: 0%

## COc1ccc2c3c1O[C@H]1C(OC(=O)c4ccccc4)=CC[C@@]4(O)[C@@H](C2)N(C)CC[C@]314 [Bz-OC]
[3]; 1N HCl, 1 hour
  percent of OC released: 0%
[3]; 5% Bicarbonate, 1 hour
  percent of OC released: 0%
[3]; Water, 1 hour
  percent of OC released: 0%
[3]; Water, 24 hours
  percent of OC released: 0%

## COc1ccc2c3c1O[C@H]1C(OC(=O)c4ccccc4N)=CC[C@@]4(O)[C@@H](C2)N(C)CC[C@]314 [Conjugate 2-ABz-OC]
[3]; 1N HCl, 1 hour
  percent of OC released: 0%
[3]; 5% Bicarbonate, 1 hour
  percent of OC released: 3%
[3]; Water, 1 hour
  percent of OC released: <1%
[3]; Water, 24 hours
  percent of OC released: <1%

## COc1ccc2c3c1O[C@H]1C(OC(=O)c4ccccc4O)=CC[C@@]4(O)[C@@H](C2)N(C)CC[C@]314 [Conjugate 2-OH-Bz-OC]
[3]; 1N HCl, 1 hour
  percent of OC released: 0%
[3]; 5% Bicarbonate, 1 hour
  percent of OC released: 5%
[3]; Water, 1 hour
  percent of OC released: 0%
[3]; Water, 24 hours
  percent of OC released: 0%

## COc1ccc2c3c1O[C@H]1C(OC(=O)c4cccc(N)c4)=CC[C@@]4(O)[C@@H](C2)N(C)CC[C@]314 [Conjugate 3-ABz-OC]
[1]
  AUC: 52.9 ng·h/mL
  Cmax: 45.5 ng/mL
  tmax: 33 min
  %-AUC of OC: 83%
  %-Cmax of OC: 96%
  %-tmax of OC: 122%
[2]
  AUC: 3.6 ng·h/mL
  Cmax: 2.0 ng/mL
  tmax: 26.4 min
  %-AUC of OC: 69%
  %-Cmax of OC: 49%
  %-tmax of OC: 97%
[3]; 1N HCl, 1 hour
  percent of OC released: <1%
[3]; 5% Bicarbonate, 1 hour
  percent of OC released: <1%
[3]; Water, 1 hour
  percent of OC released: 0%
[3]; Water, 24 hours
  percent of OC released: 0%

## COc1ccc2c3c1O[C@H]1C(OC(=O)c4cccc(O)c4)=CC[C@@]4(O)[C@@H](C2)N(C)CC[C@]314 [Conjugate 3-OH-Bz-OC]
[3]; 1N HCl, 1 hour
  percent of OC released: <1%
[3]; 5% Bicarbonate, 1 hour
  percent of OC released: 0%
[3]; Water, 1 hour
  percent of OC released: 0%
[3]; Water, 24 hours
  percent of OC released: 0%

## COc1ccc(C(=O)OC2=CC[C@@]3(O)[C@H]4Cc5ccc(OC)c6c5[C@@]3(CCN4C)[C@H]2O6)cc1 [Conjugate 4-MeO-Bz-OC]
[4]
  AUC: 7.2 ng·h/mL
  Cmax: 9.4 ng/mL
  tmax: 22 min
  %-AUC of OC: 65%
  %-Cmax of OC: 60%
  %-tmax of OC: 105%
[1]
  AUC: 55.5 ng·h/mL
  Cmax: 28.5 ng/mL
  tmax: 15 min
  %-AUC of OC: 59%
  %-Cmax of OC: 61%
  %-tmax of OC: 33%
[5]
  Cmax: 949.4 ng/mL
  tmax: 4.98 min
  %-Cmax of OC: 48%
  %-tmax of OC: 100%
[2]
  AUC: 6.7 ng·h/mL
  Cmax: 4.7 ng/mL
  tmax: 15 min
  %-AUC of OC: 51%
  %-Cmax of OC: 63%
  %-tmax of OC: 83%
[3]; 1N HCl, 1 hour
  percent of OC released: <1%
[3]; 5% Bicarbonate, 1 hour
  percent of OC released: <1%
[3]; Water, 1 hour
  percent of OC released: 0%
[3]; Water, 24 hours
  percent of OC released: <1%

## COc1ccc2cc(C(C)C(=O)OC3=CCC4(O)C5Cc6ccc(OC)c7c6C4(CCN5C)C3O7)ccc2c1 (stereo not drawn) [Naprox-OC]
[3]; 1N HCl, 1 hour
  percent of OC released: <1%
[3]; 5% Bicarbonate, 1 hour
  percent of OC released: 0%
[3]; Water, 1 hour
  percent of OC released: 0%
[3]; Water, 24 hours
  percent of OC released: 0%
